{"source": "paper PMC10797667", "about": "(ACS catalysis, 2020)", "key": {"[1]": {"molecular_target": "ANT4' (aminoglycoside nucleotidyl transferase 4') (Staphylococcus aureus, UniProt P05057, E52D/T130K)", "assay": "biochemical"}, "[2]": {"molecular_target": "ANT4' (aminoglycoside nucleotidyl transferase 4') (Staphylococcus aureus, UniProt P05057)", "assay": "X-ray crystal structure", "type": "binding", "details": "binary complex, 0.1-0.2 M MgCl2, pH 7-8; active site"}, "[3]": {"molecular_target": "ANT4' (aminoglycoside nucleotidyl transferase 4') (Staphylococcus aureus, UniProt P05057, T130K)", "assay": "biochemical"}}}
{"smiles": "NC[C@@H]1O[C@H](O[C@H]2[C@@H](O)[C@H](O[C@@H]3[C@@H](O)[C@H](N)C[C@H](N)[C@H]3O[C@H]3O[C@H](CN)[C@@H](O)[C@H](O)[C@H]3N)O[C@@H]2CO)[C@H](N)[C@@H](O)[C@@H]1O", "note": "[neomycin]", "values": [{"measurement": "Kd", "setting": "[1]", "result": "870 ± 80", "unit": "nM"}, {"measurement": "X-ray crystal structure", "setting": "[2]", "result": "A binary neomycin complex was also determined in the wild-type ANT4’ enzyme"}, {"measurement": "Kd", "setting": "[3]", "result": "340 ± 30", "unit": "nM"}]}
